Measurements taken from PubChem BioAssay (NCI).
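Method: 48-hour compound exposure of cells in 96-well plates, five concentrations, linear interpolation of endpoints. At the TGI there is no net growth.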

Columns and labels:
Experiment in all cases: inhibition of tumour cell growth, NCI panel, 48 h
PC-3 prostate = test system: PC-3 prostate
CCRF-CEM leukemia = test system: CCRF-CEM leukemia
KM12 colon = test system: KM12 colon
OVCAR-3 ovarian = test system: OVCAR-3 ovarian
A549 NSCLC = test system: A549 NSCLC
SNB-19 CNS = test system: SNB-19 CNS
RXF 393 renal = test system: RXF 393 renal
MOLT-4 leukemia = test system: MOLT-4 leukemia
UACC-62 melanoma = test system: UACC-62 melanoma
COLO 205 colon = test system: COLO 205 colon
SF-295 CNS = test system: SF-295 CNS
SF-539 CNS = test system: SF-539 CNS
SK-MEL-28 melanoma = test system: SK-MEL-28 melanoma
MCF7 breast = test system: MCF7 breast
HOP-62 NSCLC = test system: HOP-62 NSCLC
SK-MEL-5 melanoma = test system: SK-MEL-5 melanoma
CAKI-1 renal = test system: CAKI-1 renal
K-562 leukemia = test system: K-562 leukemia
NCI-H460 lung = test system: NCI-H460 lung
SNB-75 CNS = test system: SNB-75 CNS

SMILES | TGI (PC-3 prostate) [µM] | TGI (CCRF-CEM leukemia) [µM] | TGI (KM12 colon) [µM] | TGI (OVCAR-3 ovarian) [µM] | TGI (A549 NSCLC) [µM] | TGI (SNB-19 CNS) [µM] | TGI (RXF 393 renal) [µM] | TGI (MOLT-4 leukemia) [µM] | TGI (UACC-62 melanoma) [µM] | TGI (COLO 205 colon) [µM] | TGI (SF-295 CNS) [µM] | TGI (SF-539 CNS) [µM] | TGI (SK-MEL-28 melanoma) [µM] | TGI (MCF7 breast) [µM] | TGI (HOP-62 NSCLC) [µM] | TGI (SK-MEL-5 melanoma) [µM] | TGI (CAKI-1 renal) [µM] | TGI (K-562 leukemia) [µM] | TGI (NCI-H460 lung) [µM] | TGI (SNB-75 CNS) [µM]
COc1ccc(C(OCC2OC3(COC(c4ccccc4)(c4ccc(OC)cc4)c4ccc(OC)cc4)C(Oc4nc(=O)ccn43)C2O)(c2ccccc2)c2ccc(OC)cc2)cc1 (stereo not given) | > 100 | > 100 | > 100 | > 100 | > 100 | > 100 | > 100 | > 100 | > 100 | > 100 | > 100 | > 100 | > 100 | > 100 | > 100 | > 100 | > 100 | > 100 |  | 
O=C(Sc1n[nH]c(=O)[nH]c1=O)c1cccc2nc3ccccc3nc12 |  | > 100 | > 100 | > 100 | 50.4 | > 100 | > 100 | > 100 | > 100 | 5.76 | > 100 | > 100 | 90.9 | > 100 |  | 14.5 | > 100 | > 100 | > 100 | 
COc1ccc(C2Oc3c(cccc3-c3c(-c4ccc(O)cc4)oc4cc(O)cc(O)c4c3=O)C(=O)C2O)cc1O (stereo not given) | > 100 | > 100 |  | > 100 | > 100 | > 100 |  | > 100 | > 100 | > 100 | > 100 |  | > 100 | > 100 | > 100 | > 100 |  | > 100 | > 100 | > 100
Cc1ccc(C)n2c1nc1cc3ccccc3cc12 | > 100 | > 100 | > 100 | > 100 | > 100 | > 100 | > 100 | 95.1 | 57.1 | > 100 | > 100 | > 100 | > 100 | 16 | > 100 | 93 |  | > 100 |  | 57.6
O=C(Cn1c2c(c3ccccc31)CCCC2)N1CCCCC1 | > 100 |  |  | > 100 | > 100 | > 100 |  | > 100 | > 100 | > 100 | > 100 | > 100 | > 100 | > 100 | > 100 | > 100 | > 100 |  | > 100 | 
COC1(OC)N=C(N)C2(C#N)C(C)=C3NCN(C)N=C3C12C#N (stereo not given) | > 100 |  | > 100 | > 100 | > 100 | > 100 | > 100 |  | > 100 | > 100 | > 100 | > 100 | > 100 | > 100 | > 100 | > 100 | > 100 | > 100 |  | > 100
Clc1ccc(C(Cc2ccccc2)c2c(Cl)nc(N3CCNCC3)nc2Cl)cc1 (stereo not given) | 28 | 27.2 | 20.7 | 28.2 | 30.4 | 28.6 |  | 15.9 | 44 | 3.11 | 36 | 28.8 | 26.6 | 20 | 30.2 | 27.8 | 18 | 17.8 | 30.2 | 27.2
C=CCSC1=N/C(=C\c2ccc(OC)cc2)C(=O)N1CC=C | 80.1 | 78 | 71.7 | > 100 | > 100 | > 100 | 50.1 | 37.1 | > 100 | 40.2 | > 100 | > 100 | > 100 | > 100 | > 100 | 29 | > 100 | > 100 | > 100 | 
COC(=O)c1sc2c(c1C(=O)OC)C(=NC(C)(C)C)SC2=NC(C)(C)C | 37 | 33.5 | 33.8 | 36.9 | 41.8 | 35.8 | 19.3 | 31.8 | 33.2 | 34 | 36.6 | 34.1 | 32 | 33.1 | 39 | 29.5 | 32.6 | 43.3 | 34.9 | 
CNn1c(-c2ccc(C)cc2)n[nH]c1=O | > 100 | > 100 | > 100 | > 100 | > 100 | > 100 | > 100 | > 100 | > 100 | > 100 | > 100 | > 100 |  | > 100 | > 100 | > 100 | > 100 | > 100 | > 100 | 
O=C(Cn1c(C(=O)/C=C/c2ccc(Cl)cc2)nc2ccccc21)c1ccc(Cl)cc1 | > 100 | 8.45 | 27.6 | 22.9 | 71.5 | 69.5 | 32.6 | 14.5 | 33.7 | 36.1 |  | 38.6 | 62.6 | 30.9 | 41.6 | 29.3 |  | > 100 | 28.9 | 
COc1c2cc([N+](=O)[O-])cc1CN(C(=O)C(F)(F)F)CCOCCN(C(=O)C(F)(F)F)C2 | > 100 | > 100 | > 100 | > 100 | > 100 | > 100 |  | > 100 | > 100 | > 100 | > 100 | > 100 | > 100 | > 100 | > 100 | > 100 | > 100 |  | > 100 | > 100
NNC(=O)c1cc([N+](=O)[O-])ccc1NC(=O)C12CC3CC(CC(C3)C1)C2 | > 100 | 24.9 | > 100 | 84.3 | 51.7 | 21.4 | 42.2 | > 100 | 28 | 64.2 | 63 | 50.1 |  | > 100 | > 100 | > 100 | > 100 | > 100 | 62.8 | 
C[C@H](c1ccccc1)n1c(N)c(-c2nc3ccccc3s2)c2ccc([N+](=O)[O-])cc2c1=O | > 65.7 |  | 61.2 | > 100 | > 100 | > 52.1 |  | 19.9 | > 100 | 36.4 | 50.8 | 54 | > 100 | 52.2 | 56.9 | 19.8 | > 85.1 | 4.25 | > 61.5 | > 91.7
CCOC(=O)c1csc(C(CSCc2ccc(OC)cc2)N2C(=O)c3ccccc3C2=O)n1 (stereo not given) | > 100 | > 100 | > 100 | > 100 | > 100 | > 100 | > 100 | > 100 | > 100 | > 100 | > 100 | > 100 | > 100 | > 100 | > 100 | > 100 | > 100 | > 100 | > 100 | 
CC(=O)NC1CC(C(C)(C)NC(C)=O)CC=C1C (stereo not given) | > 100 | > 100 | > 100 | > 100 | > 100 | > 100 |  | > 100 | > 100 | > 100 | > 100 | > 100 | > 100 | > 100 | > 100 | > 100 |  | > 100 | > 100 | > 100
CNC(=O)CCCNC(=O)CCCCC(=O)N(C)C | > 100 |  | > 100 | > 100 | > 100 | > 100 | > 100 | > 100 | > 100 | > 100 | > 100 | > 100 | > 100 | > 100 | > 100 | > 100 | > 100 | > 100 | > 100 | 
O=c1[nH]nc(-c2ccccc2)n1-c1cccc([N+](=O)[O-])c1 |  | > 100 | > 100 | > 100 | > 100 | > 100 | > 100 | > 100 | > 100 | > 100 | > 100 | > 100 | > 100 | > 100 | > 100 | > 100 | > 100 | > 100 | > 100 | > 100
CCOC(=O)[C@@H]1ON2O[C@@H](OC3CCCCC3c3ccccc3)C[C@H]3OC(=O)[C@@H]1C32 (stereo not given in full) |  | 21.9 | > 100 | > 100 | > 100 |  | > 100 | > 100 | > 100 | > 100 | > 100 | > 100 |  | > 100 | > 100 | > 100 | > 100 | > 100 | > 100 | > 100
O=C1C=C(NCC(c2ccccc2)c2ccccc2)C(=O)c2ncccc21 | 6.24 | 9.7 | 16.5 | 3.32 | 1.87 | 9.62 |  | 6.91 | 2.9 | 24.4 | 3.51 | 8.55 | 10 | 3.33 | 4.02 | 1.62 | 11.4 | 4.1 | 1.92 | 2.77
CC(=O)N1C(=O)c2cc3ccccc3cc21 | > 100 | > 100 |  |  | > 100 | > 100 |  |  | > 100 | > 100 |  | > 100 | > 100 | > 100 | > 100 | > 100 |  | > 100 | > 100 | > 100
O=C(/C=C/c1ccccc1)c1cc(C(=O)/C=C/c2ccccc2)c(O)cc1O | > 100 |  |  |  | > 100 | > 100 |  | > 100 | > 100 | > 100 |  | > 100 | > 100 | > 100 | > 100 | > 100 | > 100 |  | > 100 | 
CC(=O)N1C(CCc2ccccc2)CC(C)(C=O)C1Cc1ccc(O[Si](C(C)C)(C(C)C)C(C)C)cc1 (stereo not given) | 12.8 |  | 11.8 | 11.8 | 15.2 | 18.1 | 5.81 | > 21.5 | 16.3 | 7.03 | 19.6 | 6.03 | 18.7 | 5.26 | 25.9 | 7.64 | 11.2 | > 26.1 | 9.05 | 18.4
COc1ccc(/C=C2\CCC(C)c3c2nc(N)c(C#N)c3-c2ccc(OC)c(OC)c2)cc1OC (stereo not given) | > 100 | > 100 | > 100 | > 100 |  | > 100 | > 100 | > 100 | > 100 | 73.1 | > 100 | > 100 | > 100 | > 100 | 9.95 | > 100 | > 100 | > 100 |  | 
C[C@H](CCC(=O)NCCS(=O)(=O)O)[C@H]1CC[C@H]2[C@@H]3[C@H](O)C[C@@H]4C[C@H](O)CC[C@]4(C)[C@H]3CC[C@]12C | > 100 | > 100 | > 100 | > 100 | > 100 | > 100 | > 100 | > 100 | > 100 | > 100 | > 100 | > 100 | > 100 | > 100 | > 100 | > 100 | > 100 | > 100 | > 100 | 
COC(=O)CSc1nc2[nH]c(SC)c(C(N)=O)c2c(=O)n1-c1ccccc1 | > 10 | > 10 | > 10 |  | > 10 |  | > 10 | > 10 | > 10 | > 10 | > 10 |  | > 10 | > 10 | > 10 | > 10 | > 10 | > 10 |  | > 10
